Data taken from US9029389B2 (Institut Pasteur Korea, priority 2011, dated 2015).

Key:
Human 5-lipoxygenase = target: T1, Human 5-lipoxygenase (Homo sapiens, UniProt P09917); test: Activity of compounds against 5-LO enzyme (LTB4 measurement and/or fluorescence method); format: biochemical; conditions: for inhibition at 10 µM: 5-LO, single concentration of 10 uM in duplicate; for IC50: 6 or 11 point dose response in duplicate
T1 construct: purchased Cayman 60402; host or cells: insect cells
T1 sequence (P09917 1-674): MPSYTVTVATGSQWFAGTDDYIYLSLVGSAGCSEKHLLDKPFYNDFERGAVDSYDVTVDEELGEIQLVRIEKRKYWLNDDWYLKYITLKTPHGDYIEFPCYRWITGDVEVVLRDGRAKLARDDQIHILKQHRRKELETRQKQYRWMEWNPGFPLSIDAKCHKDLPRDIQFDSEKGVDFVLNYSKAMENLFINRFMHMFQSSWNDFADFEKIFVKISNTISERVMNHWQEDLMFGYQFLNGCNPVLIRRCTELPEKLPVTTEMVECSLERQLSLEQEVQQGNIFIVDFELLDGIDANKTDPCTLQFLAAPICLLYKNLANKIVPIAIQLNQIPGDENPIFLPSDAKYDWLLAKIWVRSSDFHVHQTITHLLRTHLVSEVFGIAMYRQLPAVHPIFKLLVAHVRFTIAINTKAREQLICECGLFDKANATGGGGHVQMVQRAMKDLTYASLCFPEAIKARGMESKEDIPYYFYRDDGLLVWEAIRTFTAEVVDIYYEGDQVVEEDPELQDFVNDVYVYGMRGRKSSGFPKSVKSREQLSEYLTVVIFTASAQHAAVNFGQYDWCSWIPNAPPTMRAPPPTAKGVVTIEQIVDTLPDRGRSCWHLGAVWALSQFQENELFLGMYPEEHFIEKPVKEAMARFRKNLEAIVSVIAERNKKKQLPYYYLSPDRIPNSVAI
Summary of the method: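 Insect-cell human 5-LO preincubated 15 min at RT with compound (pH 7.4, 2 mM CaCl2, 0.1 mM ATP, 1% DMSO), then 3 uM arachidonic acid for 5 min at 37 °C; LTB4 quantified by EIA and/or LC/MS/MS. Alternatively, fluorescence of 5-HpETE via H2DCFDA, 100 uM ATP, 3 uM arachidonic acid, 5 min, RT; single 10 uM screen then 6- or 11-point IC50.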

Compound	inhibition at 10 µM (Human 5-lipoxygenase)	IC50 (Human 5-lipoxygenase)	melting point
CCc1nc2ccc(C)cn2c1C(=O)NCc1ccc(N2CCN(c3ccc(F)cc3)CC2)cc1 [compound 231, 2-Ethyl-N-(4-(4-(4-fluorophenyl)piperazin-1-yl)benzyl)-6-methylimidazo[1,2-a]pyridine-3-carboxamide]	> 69%	1 to 20 µM	187.6 °C
CCc1nc2cc(Cl)ccn2c1C(=O)NCc1ccc(N2CCC(c3ccc(Cl)cc3)CC2)cc1 [compound 297, 7-Chloro-N-(4-(4-(4-chlorophenyl)piperidin-1-yl)benzyl)-2-ethylimidazo[1,2-a]pyridine-3-carboxamide]	40 to 69%		177 °C
CCc1nc2ccc(Cl)cn2c1CNc1ccc(Oc2ccc(F)cc2)cc1 [compound 379, N-((6-Chloro-2-ethylimidazo[1,2-a]pyridin-3-yl)methyl)-4-(4-fluorophenoxy)aniline]		1 to 20 µM	148.6 to 148.8 °C
CCc1nc2cc(Cl)ccn2c1C(=O)NCc1ccc(N2CC(C)CC(C)C2)cc1 (stereo not shown) [compound 198, 7-Chloro-N-(4-(3,5-dimethylpiperidin-1-yl)benzyl)-2-ethylimidazo[1,2-a]pyridine-3-carboxamide]	40 to 69%		181.5 to 182.8 °C
CCc1nc2c(F)cccn2c1C(=O)NCc1ccc(N2CCC(c3ccc(OC(F)(F)F)cc3)CC2)cc1 [compound 373, 2-ethyl-8-fluoro-N-(4-(4-(4-(trifluoromethoxy)phenyl)piperidin-1-yl)benzyl)imidazo[1,2-a]pyridine-3-carboxamide]	40 to 69%		> 177.7 °C (dec.)
CCc1nc2ccc(Cl)cn2c1C(=O)NCC(C)C [compound 239, 6-Chloro-2-ethyl-N-isobutylimidazo[1,2-a]pyridine-3-carboxamide]	< 40%		162.2 °C
CCc1nc2ccccn2c1C(=O)NCc1ccc(N2CCC(COc3ccc(F)cc3)CC2)cc1 [compound 243, 2-Ethyl-N-(4-(4-((4-fluorophenoxy)methyl)piperidin-1-yl)benzyl)imidazo[1,2-a]pyridine-3-carboxamide]	> 69%	< 1 µM	144.2 °C
CCc1nc2cc(Cl)ccn2c1C(=O)NCc1nc2cc(-c3ccc(OC(F)(F)F)cc3)ccc2o1 [compound 370, 7-chloro-2-ethyl-N-((5-(4-(trifluoromethoxy)phenyl)benzo[d]oxazol-2-yl)methyl)imidazo[1,2-a]pyridine-3-carboxamide]	< 40%		> 220 °C
CCc1nc2ccc(Cl)cn2c1C(=O)NCc1nc2ccc(Cl)cc2s1 [compound 371, 6-chloro-N-((6-chlorobenzo[d]thiazol-2-yl)methyl)-2-ethylimidazo[1,2-a]pyridine-3-carboxamide]	< 40%		> 220 °C
CCc1nc2cc(Cl)ccn2c1C(=O)NCc1ccc(N2CC(C)OC(C)C2)cc1 (stereo not shown) [compound 183, 7-Chloro-N-(4-(2,6-dimethylmorpholino)benzyl)-2-ethylimidazo[1,2-a]pyridine-3-carboxamide]	< 40%		165 to 166 °C
CCc1nc2cc(Br)ccn2c1C(=O)NCc1ccc(N2CCOCC2)cc1 [compound 253, 7-Bromo-2-ethyl-N-(4-morpholinobenzyl)imidazo[1,2-a]pyridine-3-carboxamide]	< 40%		202.6 °C
CCc1nc2c(OC(F)F)cccn2c1C(=O)NCc1ccc(N2CCN(c3ccc(F)cc3)CC2)cc1 [compound 278, 8-(Difluoromethoxy)-2-ethyl-N-(4-(4-(4-fluorophenyl)piperazin-1-yl)benzyl)imidazo[1,2-a]pyridine-3-carboxamide]	40 to 69%		186.3 °C
CCc1nc2ccc(Br)cn2c1C(=O)NCc1ccc(Oc2ccc(OC(F)(F)F)cc2)cc1 [compound 226, 6-Bromo-2-ethyl-N-(4-(4-(trifluoromethoxy)phenoxy)benzyl)imidazo[1,2-a]pyridine-3-carboxamide]	< 40%		152.9 °C
